Reference: ChEMBL document CHEMBL4393714, “Multi-targeting protein-protein interaction inhibitors: Evolution of macrocyclic ligands with embedded carbohydrates (MECs) to improve selectivity” (Eur J Med Chem, 2019)

Assays:
[1] = target: Small conductance calcium-activated potassium channel (Rattus norvegicus) (UniProt P70604+P70606+P70605); test: Displacement of [125I]apamin from rat brain SKCa at 10 uM measured after 60 mins by scintillation counter method relative to control
[2] = target: Vasoactive intestinal polypeptide receptor 1 (Homo sapiens) (UniProt P32241); test: Displacement of [125I] VIP from human recombinant VPAC1 receptor at 10 uM measured after 60 mins by scintillation counter method relative to control
[3] = target: 5-hydroxytryptamine receptor 3A (Homo sapiens) (UniProt P46098); test: Displacement of [3H] BRL 43694 from human 5-HT3 at 10 uM measured after 120 mins by scintillation counter method relative to control
[4] = target: 5-hydroxytryptamine receptor 1B (Homo sapiens) (UniProt P28222); test: Displacement of [3H] GR125743 from human recombinant 5-HT1B receptor at 10 uM measured after 60 mins by scintillation counter method relative to control
[5] = target: Kappa-type opioid receptor (Homo sapiens) (UniProt P41145); test: Displacement of [3H] U69593 from human kappa opioid receptor at 10 uM measured after 60 mins by scintillation counter method relative to control
[6] = target: C-X-C chemokine receptor type 2 (Homo sapiens) (UniProt P25025); test: Displacement of [125I]IL-8 from human recombinant CXCR2 receptor at 10 uM measured after 60 mins by scintillation counter method relative to control
[7] = target: GABA-A receptor; anion channel (Rattus norvegicus) (UniProt O09028+P15431+P18506+P18508+P19969+P20236+P23574+P23576+P28471+P28473+P30191+P62813+P63079+P63138+Q91ZM7+Q9ES14); test: Displacement of [3H]flunitrazepam from rat GABAA ion channel at 10 uM measured after 120 mins by scintillation counter method relative to control; assay type: protein-complex assay
[8] = target: Beta-2 adrenergic receptor (Homo sapiens) (UniProt P07550); test: Agonist activity at human beta 2 adreno receptor at 10 uM relative to control
Chain of Beta-2 adrenergic receptor (Homo sapiens) (P07550 whole entry, looked up): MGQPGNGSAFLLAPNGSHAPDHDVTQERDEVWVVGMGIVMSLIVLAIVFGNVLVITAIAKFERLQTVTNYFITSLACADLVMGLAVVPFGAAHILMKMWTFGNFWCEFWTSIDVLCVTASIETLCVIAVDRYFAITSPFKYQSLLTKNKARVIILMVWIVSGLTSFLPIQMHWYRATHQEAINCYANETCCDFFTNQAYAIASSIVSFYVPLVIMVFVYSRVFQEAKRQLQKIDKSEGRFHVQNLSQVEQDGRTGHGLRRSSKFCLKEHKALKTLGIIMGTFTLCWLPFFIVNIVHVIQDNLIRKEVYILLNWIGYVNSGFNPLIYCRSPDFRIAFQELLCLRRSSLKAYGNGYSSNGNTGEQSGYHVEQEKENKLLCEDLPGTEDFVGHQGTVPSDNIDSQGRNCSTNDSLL

Chain of 5-hydroxytryptamine receptor 1B (Homo sapiens) (P28222 whole entry): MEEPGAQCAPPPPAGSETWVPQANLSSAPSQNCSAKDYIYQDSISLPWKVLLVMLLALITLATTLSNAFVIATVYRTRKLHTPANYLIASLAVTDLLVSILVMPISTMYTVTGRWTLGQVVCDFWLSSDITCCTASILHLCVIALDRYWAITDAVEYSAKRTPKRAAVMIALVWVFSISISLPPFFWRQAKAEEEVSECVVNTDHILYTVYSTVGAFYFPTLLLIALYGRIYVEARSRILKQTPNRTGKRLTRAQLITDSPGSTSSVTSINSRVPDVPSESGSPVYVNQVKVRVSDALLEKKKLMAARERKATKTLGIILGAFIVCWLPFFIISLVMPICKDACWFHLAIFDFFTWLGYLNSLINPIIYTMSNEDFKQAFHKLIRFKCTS
Chain of 5-hydroxytryptamine receptor 3A (Homo sapiens) (P46098 whole entry): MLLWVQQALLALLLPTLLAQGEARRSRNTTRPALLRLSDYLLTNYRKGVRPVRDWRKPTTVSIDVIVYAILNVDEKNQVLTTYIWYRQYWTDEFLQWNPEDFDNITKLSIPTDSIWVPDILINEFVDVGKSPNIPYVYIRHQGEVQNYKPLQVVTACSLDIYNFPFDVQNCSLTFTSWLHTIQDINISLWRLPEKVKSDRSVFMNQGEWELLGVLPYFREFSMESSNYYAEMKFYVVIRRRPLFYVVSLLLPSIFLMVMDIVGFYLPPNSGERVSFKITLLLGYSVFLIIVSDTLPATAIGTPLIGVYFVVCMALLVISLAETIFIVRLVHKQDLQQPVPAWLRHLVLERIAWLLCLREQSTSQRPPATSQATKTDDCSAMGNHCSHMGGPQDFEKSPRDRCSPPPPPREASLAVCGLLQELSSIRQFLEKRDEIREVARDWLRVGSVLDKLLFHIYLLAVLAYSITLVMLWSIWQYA
Chain of Kappa-type opioid receptor (Homo sapiens) (P41145 whole entry): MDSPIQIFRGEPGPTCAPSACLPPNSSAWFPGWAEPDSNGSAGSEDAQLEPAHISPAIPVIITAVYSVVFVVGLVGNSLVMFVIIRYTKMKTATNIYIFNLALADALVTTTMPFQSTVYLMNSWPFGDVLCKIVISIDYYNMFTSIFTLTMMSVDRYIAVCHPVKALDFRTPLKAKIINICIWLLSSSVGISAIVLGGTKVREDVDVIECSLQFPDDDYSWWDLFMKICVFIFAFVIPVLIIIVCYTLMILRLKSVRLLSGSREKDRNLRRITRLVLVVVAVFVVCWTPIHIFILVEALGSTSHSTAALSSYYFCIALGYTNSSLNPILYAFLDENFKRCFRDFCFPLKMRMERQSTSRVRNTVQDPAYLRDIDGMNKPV
Chain of C-X-C chemokine receptor type 2 (Homo sapiens) (P25025 whole entry): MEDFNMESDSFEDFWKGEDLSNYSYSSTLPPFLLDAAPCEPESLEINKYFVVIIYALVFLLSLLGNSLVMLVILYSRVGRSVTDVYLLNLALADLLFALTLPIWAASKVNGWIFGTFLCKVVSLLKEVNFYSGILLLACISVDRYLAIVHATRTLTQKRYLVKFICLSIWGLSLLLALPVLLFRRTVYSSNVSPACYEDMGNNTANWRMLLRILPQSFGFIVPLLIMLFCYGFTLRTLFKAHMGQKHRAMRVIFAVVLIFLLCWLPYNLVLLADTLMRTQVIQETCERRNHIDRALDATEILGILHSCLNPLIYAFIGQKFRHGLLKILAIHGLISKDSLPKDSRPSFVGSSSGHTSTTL
Chain of Vasoactive intestinal polypeptide receptor 1 (Homo sapiens) (P32241 whole entry): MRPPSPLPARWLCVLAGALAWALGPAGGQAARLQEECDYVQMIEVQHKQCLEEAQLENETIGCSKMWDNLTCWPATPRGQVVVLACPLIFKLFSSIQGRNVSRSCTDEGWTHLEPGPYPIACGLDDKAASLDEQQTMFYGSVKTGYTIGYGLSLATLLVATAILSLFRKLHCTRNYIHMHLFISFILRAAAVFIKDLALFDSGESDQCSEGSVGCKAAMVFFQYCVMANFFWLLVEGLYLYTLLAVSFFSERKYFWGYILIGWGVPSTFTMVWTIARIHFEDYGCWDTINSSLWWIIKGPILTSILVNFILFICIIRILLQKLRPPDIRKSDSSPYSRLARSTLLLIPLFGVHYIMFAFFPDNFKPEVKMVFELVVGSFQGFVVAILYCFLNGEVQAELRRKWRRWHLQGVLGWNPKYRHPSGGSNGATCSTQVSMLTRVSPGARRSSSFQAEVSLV

For `CC(C)CCO[C@@H]1[C@H]2OC(C)(C)O[C@H]2[C@H]2Cn3cc(nn3)COCCCCCCN(CCc3ccc4ccccc4c3)CC[C@H]1O2`, which inhibition [1] is on record?
The inhibition was 1.4%.

What about the Activity [2] of the same compound?
Its Activity is 14.8%.

What about the inhibition [3] of the same compound?
Its inhibition is 25.2%.

What about the inhibition [4] of the same compound?
Its inhibition is 19%.

What about the inhibition [5] of the same compound?
The inhibition was 77.9%.

And the inhibition [6]?
The inhibition was 20.9%.

And the Activity [7]?
Its Activity is 5.1%.

And the inhibition [8]?
Its inhibition is 3.9%.
